According to US20060293343A1, “Pyrimidine derivatives” (Asahi Kasei Pharma Corporation, priority 2005, published 2006):
Read-outs that look alike come from different tables or passages of the source.

Experiments:
[1] = tested on: rabbit gastric gland cells; experiment: Action on gastric acid secretion ability (in vitro), 14C-aminopyrine uptake in gastric gland cells; format: cell-based; details: Oryctolagus cuniculus, histamine 0.3 to 1.0 μM
Method: Gastric acid secretion ability (as an index of the side effect) was tested according to the methods by BergLindh and Obrink (Acta Physiol. Scand. 97:401-414, 1976) and Sack and Speney (Am. J. Physiol. 243:G313-G319, 1982).
Gastric gland cells were prepared by collagenase treatment using male rabbit (Japanese white strain, manufactured by Oriental Yeast Co.).
The test compound, ^14C-aminopyrine (1.0 nmol/mL; 0.1 μCi/nmol) and histamine (0.3 to 1.0 μM) were incubated for a given time period, and gastric gland cell pellets obtained after centrifugation and washing were lysed with 100 μL of 1N-KOH. The lysate was filled in a scintillation vial containing a scintillation cocktail (manufactured by Perkin Elmer Co.) to measure the radioactivity. The gastric acid secretion action by the test compound was calculated as EC50, and the ratio of the activity relative to IC50 of suppression of TNF-α production described in Test Example 2 (degree of dissociation A) was determined from the following equation. The larger degree of dissociation A is more preferable. The results in Table 10 represent that secretion of the gastric acid ability(EC50) was lower activity in the compound of the invention, salts thereof or prodrugs thereof as compared with the suppression effect of TNF-α production(IC50). Ex. No. in Table 10 denotes the example No.
Degree of dissociation A=EC50 of gastric acid secretion ability/IC50 of suppression of TNF-α production

[2] = tested on: TNF-α production in LPS-stimulated mouse mononuclear cells; experiment: Inhibitory action of TNF-α production using mouse mononuclear cells (in vitro); format: cell-based; details: mouse mononuclear cells from peripheral blood of C3H/He mouse; LPS 5 μg/mL, 21 hours; TNF-α ELISA; read-out: IC50 (nM), suppression action of TNF-α production
Method: Mouse mononuclear cells were isolated from the peripheral blood of C3H/He mouse (manufactured by Japan SLC Co., male), and were suspended in a culture medium (trade name RPMI 1640 manufactured by Gibco Co.) containing 10% bovine serum. The cells were seeded in a 96 well plate as 50,000 cells/well, the test compound was added at a desired concentration, and the plate was allowed to stand in an incubator containing 5% CO2 at .37° C. for 15 minutes. LPS was added thereafter at a final concentration of 5 μg/mL, and the plate was allowed to stand in the incubator for 21 hours.
The culture medium containing produced TNF-α was retrieved, and the amount of TNF-α was measured according to the protocol attached to mouse TNF-α ELISA kit (manufactured by R & D Systems Co.). […] The suppression action of TNF-α was expressed-by […] (nM). Ex. No. in Table 9 denotes the example No.

[3] = tested on: TNF-α production induced by LPS; experiment: Inhibitory action of TNF-α production (in vivo) induced by LPS using mouse
Method: C3H/He mouse (manufactured by Japan SLC Co., male) was used as a test animal. A desired concentration of the test sample was suspended in 0.5% methyl cellulose solution. The weight of the mouse was measured, and the test compound solution was orally administered at a dosage of 10 mL/kg while only 0.5% methyl cellulose was administered to the reference group. One group contained 5 to 7 mice. LPS was dissolved in physiological saline, and 10 μg was intraperitoneally administered to each mouse. The test compound was administered first, then LPS was administered 60 minutes thereafter. After 90 minutes, the blood was sampled from the large abdominal vein with the heparin, and a plasma was obtained by centrifugation. The content of TNF-α in the plasma was measured according to the protocol attached to TNF-α ELISA kit (manufactured by R & D System Co.). […] The suppression action of TNF-α production was represented by ED50 (mg/kg). Ex. No. in Table 11 denotes the example No.

[4] = tested on: T1, PDE4; experiment: Inhibitory action of PDE4 enzyme activity (PDE4 purified from U937 cells); format: biochemical; details: PDE4 fraction purified from U937 cells; [3H]-cAMP substrate; 30° C., 10 minutes
T1 construct: The PDE4 enzyme was purified from U937 cells that are the cells derived from lymphoma
Method: (1) Purification of PDE4 from U937 Cells
The PDE4 enzyme was purified from U937 cells that are the cells derived from lymphoma. U937 cells were suspended in buffer solution A (20 mM Tris-HCl(pH 6.5), 1 mM MgCl2, 0.1 mM EGTA, 3 mM 2-mercaptoethanol) containing protease. inhibitor cocktail (manufactured by Sigma Co.), and a soluble fraction was obtained by centrifugation after ultrasonic disintegration (100,000 G, 30 minutes, 4° C.). […] Each fraction was tested for the cAMP metabolized PDE activity to identify the fractions containing PDE4 enzyme.
(2) Measurement of Inhibitory Activity of PDE4 Enzyme Activity
A desired concentration of the test compound was allowed to react in a reaction mixture (100 μL; 40 mM Tris-HCl (pH 7.4), 5 MM MgCl2, 4 mM 2-mercaptoethanol, […] cAMP, 0.83 μCi [^3H]-cAMP and PDE4 fraction) at 30° C. for 10 minutes. The enzyme reaction was stopped by adding 25 μL of trichloroacetic acid to the reaction mixture. The reaction solution was charged on a neutral alumina column equilibrated with 0.1 M of 2-[[tris(hydroxylmethyl)methyl]-amino]-1-ethanesulfonic acid (TES) buffer (pH 8.0) and, after washing the column with a sufficient amount of 0.1 M TES buffer solution, the column was eluted with 2N NaOH. A 500 μL aliquot of the eluate containing [^3H]-5′AMP product was filled in a scintillation vial containing the scintillation cocktail (5 ml, manufactured by Perkin Elmer Co.) to measure radioactivity. […] The inhibitory action of PDE4 enzyme activity was expressed by IC50 (nM). Ex. No. in Table 8 denotes the example No.

[5] = tested on: C3H/He mouse; experiment: Gastric emptying test of mouse (in vivo); details: oral, test meal 60 minutes after compound
Method: C3H/He mouse (manufactured by Japan SLC Co., male) fasted for 21 to 24 hours but allowed free access to water, was used as an experimental animal. A desired concentration of the test sample was suspended in 0.5% methyl cellulose solution. The weight of the mouse was measured, and the test compound solution was orally administered at a dosage of 10 mL/kg while only 0.5% methyl cellulose solution was administered to the reference group. One group contained 5 mice. A 1.5% methyl cellulose solution containing 0.05% phenol, red was used as a test meal solution. The test compound was administered, and 0.2 ml of the test meal was orally administered at 60 minutes thereafter. […] A 10% trichloroacetic acid solution (0.5 mL) was added to 5 mL of the supernatant, which was further centrifuged to remove proteins. A solution prepared by adding 125 μL of 2 N NaOH to the supernatant (1 mL) obtained by centrifugation was measured with a spectrophotometer (550 nm), and inhibition of transfer from the stomach to the small intestine was expressed by IC50 (mg/kg).

[6] = tested on: Marshall ferret; experiment: Vomiting action using ferret; format: in vivo; details: oral, observed for more than 6 hours
Method: Marshall ferret (male, weight 1 to 1.5 kg, manufactured by Charles River Laboratories Japan, Inc.) was used. A desired concentration of the test compound was suspended in 0.5% methyl cellulose solution. The weight of a ferret was measured, and the solution of the test compound was orally administered at a dosage of 1 to 8 ml/kg. Only 0.5% methyl cellulose solution was administered to the reference group. One group contained 4 animals.

[7] = C3H/He mouse, orally administered 60 minutes before LPS 10 μg intraperitoneally, plasma TNF-α 90 minutes after LPS, read-out: ED50 (mg/kg), suppression action of TNF-α production
[8] = mouse, oral, LPS 60 minutes after compound, plasma TNF-α after 90 minutes, read-out: suppression of TNF-α production ED50

| SMILES | EC50 [1] | IC50 [2] | ED50 [3, 7] | IC50 [4] | gastric emptying test IC50 (inhibition of transfer from the stomach to the small intestine) [5] | ED50 [3, 8] | incidence of vomiting by the ferret ([6]; dosage of 50 mg/kg) | incidence of vomiting by the ferret ([6]; dosage of 100 mg/kg) |
| --- | --- | --- | --- | --- | --- | --- | --- | --- |
| CCc1nc(-c2cccs2)nc(Nc2ccc(C(=O)O)cc2)c1CC [Example 83] | 169 nM | 46 nM | 22 mg/kg | – | – | – | – | – |
| CCc1nc(-c2ccsc2)nc(Nc2ccc(CC(=O)O)cc2)c1CC [Example 58] | 1310 nM | 695 nM | 8 mg/kg | – | – | – | – | – |
| CCc1nc(-c2ccsc2)nc(Nc2ccc(C(=O)O)cc2)c1CC [Example 57] | 460 nM | 44 nM | 24 mg/kg | – | – | – | – | – |
| C=CCc1c(CC)nc(-c2ccsc2)nc1Nc1ccc2cc(C(=O)O)ccc2c1 [Example 17] | 1690 nM | 24 nM | 3 mg/kg | 9 nM | 14 mg/kg | 3 mg/kg | no incidence of vomiting | – |
| CCc1c(C)nc(-c2ccc(Br)s2)nc1Nc1ccc(CC(=O)O)cc1 [Example 148] | 10100 nM | 676 nM | 12 mg/kg | – | 85 mg/kg | 12 mg/kg | – | no incidence of vomiting |
| CCc1c(C)nc(-c2ccc(SC)s2)nc1Nc1ccc(CC(=O)O)cc1 [Example 78] | 38400 nM | 171 nM | – | – | – | – | – | – |
| CCCc1c(CC)nc(-c2ccsc2)nc1Nc1ccc(C(=O)O)cc1 [Example 15] | – | 55 nM | 13 mg/kg | 490 nM | – | – | – | – |
| CCc1nc(-c2cccs2)nc(Nc2ccc(CC(=O)O)cc2)c1CC [Example 84] | 1660 nM | 533 nM | 17 mg/kg | – | – | – | – | – |
| CCc1nc(-c2ccsc2)nc(Nc2ccc3cc(C(=O)O)ccc3c2)c1CC [Example 59] | 227 nM | 69 nM | 6 mg/kg | 41 nM | – | – | – | – |
